Assays:
Type in all cases: biochemical
Recombinant MMP-2 = target: T1, Recombinant MMP-2 (Homo sapiens, UniProt P08253); assay: MMP-2 enzyme assay with DQ gelatin fluorescent substrate; conditions: 22° C., EAB pH 7.0, soluble phase of extracts
T1 construct: made in house
T1 sequence (P08253 110-660): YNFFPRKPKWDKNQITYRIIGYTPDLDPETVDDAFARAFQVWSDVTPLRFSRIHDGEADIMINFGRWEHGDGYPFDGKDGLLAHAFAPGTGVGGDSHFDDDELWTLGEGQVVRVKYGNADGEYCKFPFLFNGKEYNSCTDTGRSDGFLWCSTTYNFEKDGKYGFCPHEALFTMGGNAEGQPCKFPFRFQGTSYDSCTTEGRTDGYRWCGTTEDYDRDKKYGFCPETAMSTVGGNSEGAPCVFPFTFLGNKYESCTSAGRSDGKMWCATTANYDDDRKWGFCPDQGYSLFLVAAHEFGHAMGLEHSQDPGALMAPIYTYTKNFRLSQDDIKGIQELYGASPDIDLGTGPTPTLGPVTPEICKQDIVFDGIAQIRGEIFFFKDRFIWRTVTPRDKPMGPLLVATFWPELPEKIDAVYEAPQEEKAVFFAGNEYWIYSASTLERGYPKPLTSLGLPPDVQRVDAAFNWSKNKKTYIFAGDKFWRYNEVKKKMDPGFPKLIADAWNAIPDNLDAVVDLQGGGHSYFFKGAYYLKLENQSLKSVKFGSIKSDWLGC
Description: (§1) From the studies of repeated activity and lack of interference, we were able to identify three lead ingredients for further development (A, C, D; A & B were two forms of the same dried extract). These were tested in a second laboratory, using a more sensitive in vitro (non-cellular) assay system, again for individual activity and interference/synergy among MMP-inhibitors and the IL-1-inhibitor against all three forms of MMP. These assays used enzyme kinetic dose curves to determine the IC50 of each extract, Doxycyclin, and combinations of extracts (including the IL-1-inhibitor, e.g., Rosehips).
MMP-2 and MMP-9: Recombinant MMP-2 and MMP-9 were expressed as recombinant proteins and purified in constitutively active forms.
DQ gelatin: A highly labeled porcine gelatin substrate (Molecular Probes, Eugine, Oreg.) was used for the enzyme assays with MMP-2 and MMP-9. The substrate degradation was measured with λex at 494 nm and λem at 515 nm
To reduce any self-degradation of the gelatin substrate, all assays were performed at 22° C. The enzyme assay buffer (EAB) used for MMP-2, MMP-9, and MMP-8 was 50 mM Tris, pH 7.0, 200 mM NaCl, 5 mM CaCl2, 1 μM ZnCl2, 0.05% Brij 35. Assays were performed under conditions where the substrates were not rate limiting. […]

[1] = target: T2, MMP-8 (purified human neutrophil collagenase) (Homo sapiens, UniProt P22894); assay: MMP-8 enzyme assay with fluorescent peptide substrate; conditions: APMA-activated MMP-8, 22° C., EAB pH 7.0
T2 construct: purchased EMD Biosciences/Calbiochem 444229
T2 sequence (P22894 101-467): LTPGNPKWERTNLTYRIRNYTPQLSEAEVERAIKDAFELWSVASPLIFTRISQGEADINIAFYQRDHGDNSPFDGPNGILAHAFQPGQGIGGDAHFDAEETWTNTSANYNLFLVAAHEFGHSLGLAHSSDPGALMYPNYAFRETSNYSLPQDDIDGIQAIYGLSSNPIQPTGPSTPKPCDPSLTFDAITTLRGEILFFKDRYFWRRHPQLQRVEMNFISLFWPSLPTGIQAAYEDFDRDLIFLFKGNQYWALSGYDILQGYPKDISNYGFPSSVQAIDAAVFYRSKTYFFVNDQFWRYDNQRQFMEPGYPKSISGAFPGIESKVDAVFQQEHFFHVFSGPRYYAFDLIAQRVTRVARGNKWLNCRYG
Description: as §1
MMP-8: Purified human neutrophil collagenase was purchased from EMD
Biosciences/Calbiochem, cat # 444229. Activation of MMP-8 was required for the experiments and was performed using aminophenylmercuric acetate (APMA) for 2 h at 37° C.
Peptide substrate: The fluorescent peptide substrate Mca-Pro-Leu-Gly-Leu-Dnp-Ala-Arg-NH2 was for measuring the MMP-8 activities (Peptides International, Louisville, Ky.). The Mca is a fluorescent group and Dnp is a quencher. When the cleavage occurs, a strong fluorescent signal is released and can be measured with λex at 328 nm and λem at 393 nm.
To reduce any self-degradation of the gelatin substrate, all assays were performed at 22° C. […]

MMP-2 or 9 = assay: BIOMOL colorimetric assay kit screen of botanical extracts, MMP-2 or 9 proteolytic activity; conditions: first round screening; relative to Doxycycline
From the text: (§2) In excess of 80 botanical extracts (BE), were screened in vitro for inhibition against MMP-2, 8, & 9 proteolytic activity. […] Individual calorimetric assay kits (BIOMOL) were used according to the manufacturer's instructions to measure the proteolytic activity of MMP's-2, 8, and 9 in the presence or absence of individual extracts and define mixtures of extracts. The known MMP-inhibitor, Doxycycline was used as an internal standard for comparison of inhibiting activity. The following final concentrations of individual ingredients are combined (along with additional confirmatory test of the “neat” ingredients). Again all tests include a “gold standard” positive control (Doxycycline). The purpose of this interference testing is to see whether combined ingredients result in different levels of inhibition for all three MMP's (2, 8, 9) than found for individual ingredients. All samples are dissolved or extracted in water where practical and otherwise specified.

MMP-8 = target: T3, MMP-8 (Homo sapiens, UniProt P22894); assay: BIOMOL colorimetric assay kit screen of botanical extracts, MMP-8 proteolytic activity; conditions: first round screening; relative to Doxycycline
T3 construct: purchased BIOMOL
T3 sequence (P22894 100-262 limits assumed): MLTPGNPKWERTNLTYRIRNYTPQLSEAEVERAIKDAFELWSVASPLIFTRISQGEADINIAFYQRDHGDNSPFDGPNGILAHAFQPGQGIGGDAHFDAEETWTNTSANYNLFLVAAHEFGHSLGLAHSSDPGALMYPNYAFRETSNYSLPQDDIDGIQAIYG
From the text: as §2

Row | IC50 for MMP-2 (Recombinant MMP-2) | IC50 for MMP-8 [1] | Structure (SMILES) | Inhib. Relative to Doxy. (Fold = % inhib X/% inhib Dox), MMP-2 or 9 (MMP-2 or 9) | Inhib. Relative to Doxy. (Fold = % inhib X/% inhib Dox), MMP-8 (MMP-8)
1 | 32 µg/mL | 35 µg/mL | C[C@H]1c2cccc(O)c2C(O)=C2C(=O)[C@]3(O)C(O)=C(C(N)=O)C(=O)[C@@H](N(C)C)[C@@H]3[C@@H](O)[C@@H]21 [DOX, Doxycycline] | – | –
2 | – | – | O=c1c(O)c(-c2ccc(O)c(O)c2)oc2cc(O)cc(O)c12 [E) Quercetin, Quercetin] | 1.56 Fold | 0.82 Fold

Source: patent US20070275104A1, “Food Compositions and Methods of Treating Periodontal Disease” (priority 2006, published 2007)
